Test results from US20130172345A1, “1-ACYL-4-(PHENOXY, BENZYLOXY, OR PHENYLAMINO)-1,2,3,4-TETRAHYDROQUINOLINE DERIVATIVES” (KOWA COMPANY, LTD., priority 2007, published 2013).
Where a name gives a salt, the structure may show the parent alone.

How the values were obtained:
[1] = system: HepG2 cells originating from human liver cancer; assay: EPO production in HepG2 cells (EPO ELISA of culture supernatant, 4% oxygen, 48 hrs); format: cell-based; details: test compound 3 μM, oxygen 4%, non-stimulated state = 100%, read-out: EPO production amount, % of control (3 μM)
Procedure: HepG2 cells originating from human liver cancer were seeded at a density of 1×10^4 cells per well on a 24-well plate by using minimum essential medium (MEM, manufactured by Sigma) comprising 10% bovine fetal serum. Next day, the medium was exchanged with Dulbecco's modified eagle medium (DMEM, manufactured by Sigma) comprising 10% bovine fetal serum lacking phenol red. Then, the test compound dissolved in DMSO was added thereto to obtain the final concentration of 3 μM or 10 μM while having 400 μl of the medium per well. The cells were incubated for 48 hrs in a CO2 incubator which had been adjusted to have oxygen concentration of 4%, followed by collecting the culture supernatant. The EPO concentration in the culture supernatant was immediately measured by using EPO ELISA kit (manufactured by Roche Diagnostics K.K.). Specific procedures were carried out according to the manufacturer's protocol included in the kit.
When EPO production amount in non-stimulated state, i.e., without addition of any compound, was 100%, the EPO production amount induced by each compound was calculated (% of control).

[2] = system: K562 cells, human proerythroblast cells; assay: Hemoglobin production in K562 cells (fluorescence of the porphyrin ring); format: cell-based; details: 144 h, test compound 6 μM, 3+3 days, non-stimulated state = 100%, read-out: production amount of hemoglobin, % of control (6 μM)
Method in brief: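 K562 cells at 1×10^5 cells/mL in RPMI-1640 with 10% FBS, exposed to compound 3 days, medium exchanged, then 3 more days at 37 °C, 5% CO2. Hemoglobin from 3×10^5 cells measured as porphyrin fluorescence after boiling 30 min in 2 M oxalic acid; expressed as % of untreated control.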

Row | SMILES | activity at 3 µM [1] [%] | activity at 6 µM [2] [%]
1 | CC(=O)N1c2ccc(C(N)=O)cc2C(Nc2ccc(CC#N)cc2)CC1C (centres unmarked) [Compound 104, 1-acetyl-4-[(4-cyanomethylphenyl)amino]-2-methyl-1,2,3,4-tetrahydroquinoline-6-carboxamide] | 204 | 536
2 | CC(=O)N1c2ccc(F)cc2[C@H](Oc2ccc(F)cc2)C[C@@H]1C (relative stereo) [Compound 34, cis-1-acetyl-4-(4-fluorophenoxy)-6-fluoro-2-methyl-1,2,3,4-tetrahydroquinoline] | 288 | 257
3 | CC(=O)N1c2ccccc2C(Nc2ccc(F)cc2)CC1C (centres unmarked) [Compound 15, 1-acetyl-4-[(4-fluorophenyl)amino]-2-methyl-1,2,3,4-tetrahydroquinoline] | 348 | 409
4 | CC(=O)N1c2ccccc2C(Nc2ccc(N(C)C)cc2)CC1C (centres unmarked) [Compound 20, 1-acetyl-4-[(4-N,N-dimethylaminophenyl)amino]-2-methyl-1,2,3,4-tetrahydroquinoline.2 hydrochloride] | 174 | 117
5 | COc1ccccc1NC1CC(C)N(C(C)=O)c2ccccc21 (centres unmarked) [Compound 12, 1-acetyl-4-[(2-methoxyphenyl)amino]-2-methyl-1,2,3,4-tetrahydroquinoline] | 197 | 398
6 | CC(=O)N1c2ccc(NS(C)(=O)=O)cc2C(Nc2ccc(Cl)cc2)CC1C (centres unmarked) [Compound 45, 1-acetyl-4-[(4-chlorophenyl)amino]-2-methyl-6-methanesulfonylamino-1,2,3,4-tetrahydroquinoline] | 286 | 387
7 | CC(=O)N1c2ccccc2C(Nc2ccc(NS(C)(=O)=O)cc2)CC1C (centres unmarked) [Compound 39, 1-acetyl-4-[(4-methanesulfonylamidephenyl)amino]-2-methyl-1,2,3,4-tetrahydroquinoline] | 131 | 327
8 | CC(=O)N1c2ccccc2C(Nc2ccc(CC(=O)O)cc2)CC1C (centres unmarked) [Compound 71, 1-acetyl-4-[(4-carboxymethylphenyl)amino]-2-methyl-1,2,3,4-tetrahydroquinoline] | 149 | 150
9 | CC(=O)N1c2ccccc2C(Nc2ccc(N3CCOCC3)cc2)CC1C (stereo not drawn) [Compound 19, cis-1-acetyl-2-methyl-4-[(4-morpholinophenyl)amino]-1,2,3,4-tetrahydroquinoline.hydrochloride] | 191 | 284
10 | CCOC(=O)Nc1ccc2c(c1)C(Nc1ccc(Cl)cc1)CC(C)N2C(C)=O (centres unmarked) [Compound 97, 1-acetyl-4-[(4-chlorophenyl)amino]-2-methyl-1,2,3,4-tetrahydroquinoline-6-ethylcarbamate] | 264 | 553
11 | CC(=O)N1c2ccccc2[C@H](Oc2ccc(O)cc2)C[C@@H]1C (relative stereo) [Compound 57, cis-1-acetyl-4-(4-hydroxyphenoxy)-2-methyl-1,2,3,4-tetrahydroquinoline] | 251 | 221
12 | CC(=O)N1c2ccc(C(=O)N(C)C)cc2C(Nc2ccc(Cl)cc2)CC1C (centres unmarked) [Compound 113, 1-acetyl-4-[(4-chlorophenyl)amino]-N,N,2-trimethyl-1,2,3,4-tetrahydroquinoline-6-carboxamide] | 112 | 163
13 | CC(=O)N1c2cc(N3CCOCC3)ccc2C(Nc2ccc(Cl)cc2)CC1C (centres unmarked) [Compound 44, 1-acetyl-4-[(4-chlorophenyl)amino]-2-methyl-7-morpholino-1,2,3,4-tetrahydroquinoline] | 301 | 162
14 | CC(=O)N1c2ccccc2C(Nc2ccc(Cl)cc2)CC1C (centres unmarked) [Compound 8, 1-acetyl-4-[(4-chlorophenyl)amino]-2-methyl-1,2,3,4-tetrahydroquinoline] | 248 | 412
15 | CC(=O)N1c2ccc(C(N)=O)cc2[C@H](Oc2ccc(F)cc2)C[C@@H]1C (relative stereo) [Compound 54, cis-1-acetyl-4-(4-fluorophenoxy)-2-methyl-1,2,3,4-tetrahydroquinoline-6-carboxamide] | 148 | 186
16 | CC(=O)N1c2cc(C#N)ccc2[C@H](Nc2ccccc2)C[C@@H]1C (relative stereo) [Compound 7, cis-1-acetyl-7-cyano-2-methyl-4-phenylamino-1,2,3,4-tetrahydroquinoline] | 261 | 260
17 | CCC(=O)N1c2ccccc2C(Nc2ccccc2)CC1C (centres unmarked) [Compound 3, 2-methyl-4-phenylamino-1-propionyl-1,2,3,4-tetrahydroquinoline] | 187 | 912
18 | CC(=O)N1c2ccccc2[C@H](Oc2ccccc2F)C[C@@H]1C (relative stereo) [Compound 29, cis-1-acetyl-4-(2-fluorophenoxy)-2-methyl-1,2,3,4-tetrahydroquinoline] | 305 | 201
19 | CC(=O)N1c2c(F)cccc2[C@H](Nc2ccccc2F)C[C@@H]1C (relative stereo) [Compound 4, cis-1-acetyl-8-fluoro-4-[(2-fluorophenyl)amino]-2-methyl-1,2,3,4-tetrahydroquinoline] | 163 | 92
20 | CCOC(=O)c1ccc2c(c1)C(Oc1ccc(F)cc1)CC(C)N2C(C)=O (centres unmarked) [Compound 53, ethyl 1-acetyl-4-(4-fluorophenoxy)-2-methyl-1,2,3,4-tetrahydroquinoline-6-carboxylate] | 134 | 307
21 | CC(=O)N1c2ccccc2C(Nc2ccc(OC(C)C)cc2)CC1C (stereo not drawn) [Compound 18, cis-1-acetyl-4-[(4-isopropoxyphenyl)amino]-2-methyl-1,2,3,4-tetrahydroquinoline.hydrochloride] | 178 | 374
22 | CC(=O)N1c2ccccc2C(Nc2ccccc2)CC1C (centres unmarked) [Compound 1, 1-acetyl-2-methyl-4-phenylamino-1,2,3,4-tetrahydroquinoline] | 235 | 575
23 | CCOC(=O)c1ccc2c(c1)[C@H](Nc1ccc(Cl)cc1)C[C@H](C)N2C(C)=O (relative stereo) [Compound 41, ethyl cis-1-acetyl-4-[(4-chlorophenyl)amino]-2-methyl-1,2,3,4-tetrahydroquinoline-6-carboxylate] | 119 | 529
24 | CC(=O)N1c2ccccc2[C@H](Oc2cc(F)cc(F)c2)C[C@@H]1C (relative stereo) [Compound 62, cis-1-acetyl-4-(3,5-difluorophenoxy)-2-methyl-1,2,3,4-tetrahydroquinoline] | 193 | 168
25 | COCc1ccc(NC2CC(C)N(C(C)=O)c3ccccc32)cc1 (centres unmarked) [Compound 69, 1-acetyl-4-[(4-methoxymethylphenyl)amino]-2-methyl-1,2,3,4-tetrahydroquinoline] | 150 | 407
